Assay results reported in patent US12448367B2, “Phthalazine derivatives as pyruvate kinase modulators” (Sitryx Therapeutics Limited, priority 2022, dated 2025).
Several values for one entry are separate records, joined by “and”; a condition that tells them apart may be missing. Equal entries are not always repeated.

Legend:
[1] = target: T1, recombinant human PKLR (Homo sapiens, UniProt P30613); test: Human PKLR activation assay (Kinase-Glo Plus luminescence, ATP generated); assay type: biochemical; settings: * = repeat experiments; for EC50: activation of N-terminal His-tagged hPKLR, 4-parameter logistic fit; for Emax: read-out: hPKLR Emax
T1 construct: His (N); purchased R&D Systems
Protocol: Biological Example 2—Human PKLR Activation Assay
Measuring In Vitro Activation of Recombinant Human PKLR
(§1) Compound activation of recombinant human PKLR pyruvate kinase activity was determined by biochemical assay. N-terminal His-tagged enzyme was sourced from R&D Systems and its substrates phosphoenolpyruvate (PEP) and ADP from Sigma-Aldrich and 2Bscientific Ltd, respectively. The Kinase-Glo® Plus luminescence assay was from Promega. All other reagents were from Sigma-Aldrich. Test Compounds were prepared as 10 mM DMSO stocks and dilution series prepared in DMSO for direct dilution into Assay Buffer comprising 50 mM imidazole, 50 mM KCl, 7 mM MgCl2, 0.01% Tween20, 0.05% BSA (pH 7.2).
Human PKLR was diluted into Assay Buffer to a final concentration of 5 μM. Enzyme-Assay Buffer mix was dispensed into 384-well shallow-well white-walled plates and Test Compounds added by acoustic dispense (Echo®, Labcyte Inc). Following 10 minutes' incubation at room temperature, the enzyme reaction was initiated by acoustic dispensing of ADP+PEP substrate to final concentrations of 254 μM ADP and 53 μM […].
(§2) After 60 minutes' incubation on an orbital shaker (300 rpm, 26° C.), enzyme activity was quantified by the luminescent detection of generated ATP. Kinase-Glo® Plus reagent was added to each well and the plates incubated for a further 15 minutes on an orbital shaker in the dark (300 rpm, 26° C.) before luminescence measurement on a plate reader (PHERAstar® FSX, BMG Labtech).
(§3) Percentage activation was calculated by normalising […] signals to plate LOW (DMSO vehicle) and HIGH (5 μM TEPP-46) controls. EC50 and Emax values were determined from 4-parameter logistic fits of compound concentration-response curves.

[2] = target: T2, pyruvate kinase in human CD4+ T cell lysates (Homo sapiens, UniProt P14618); test: CD4+ T cell pyruvate kinase assay (PK activity in lysates of compound-treated cells); assay type: cell-based; settings: primary human CD4+ T cells incubated with compound 20 minutes, washed, lysed; ΔAbsorbance OD570 nm
T2 construct: endogenous in cells; host or cells: primary human CD4+ T cells
Protocol: Measuring Pyruvate Kinase (PK) Activity in Human CD4+ T Cell Lysates
Compound activation of pyruvate kinase in human CD4+ T cell lysates was determined by biochemical assay. Primary CD4+ T cells were used rather than cancer cell lines to improve the disease relevance of the assay. The PK assay was sourced from Abcam. All other reagents were sourced from ThermoFisher. Test compounds were prepared as 10 mM DMSO stocks and dilution series prepared in DMSO for addition to intact CD4+ T cells cultured in RPMI media containing 10% FBS.
Human CD4+ T cells were incubated with compound for 20 minutes and then washed twice in 1×PBS before resuspension in Abcam PK lysis buffer to prepare cell lysates. 10 μl PK assay Reaction Mix was added per well, including OXIRED™ PROBE. The plates were read using a BMG Labtech Pherastar plate reader at OD570 nm in kinetic mode for […] (25 cycles of 2 minutes) at 25° C., protecting from light.
Plates were blank-subtracted and ΔAbsorbance calculated by subtracting the first plate read within the linear range from the plate read at the timepoint of interest. PK activity is expressed as ΔAbsorbance and plotted against log [Compound].

[3] = target: T3, recombinant human PKM2 (Homo sapiens, UniProt P14618); test: Human PKM2 activation assay (Kinase-Glo Plus luminescence, ATP generated); assay type: biochemical; settings: * = repeat experiments; for EC50: activation of N-terminal His-tagged hPKM2, 4-parameter logistic fit; for Emax: read-out: hPKM2 Emax
T3 construct: His (N); purchased R&D Systems
Protocol: Measuring In Vitro Activation of Recombinant Human PKM2
as §1, with “PKM2” for “PKLR”, “hPKM2” for “enzyme”
Human PKM2 was diluted into Assay Buffer comprising 50 mM imidazole, 50 mM KCl, 7 mM MgCl2, 0.01% Tween20, 0.05% BSA (pH 7.2) to a final concentration of […]. Enzyme-Assay Buffer mix was dispensed into a 384-well shallow-well white-walled plate (PerkinElmer) and Test Compounds added by acoustic dispense (Echo®, Labcyte Inc.).
as §2, §3

[4] = percentage activation normalised to DMSO (LOW) and 5 μM TEPP-46 (HIGH)

T3 sequence (P14618 whole entry): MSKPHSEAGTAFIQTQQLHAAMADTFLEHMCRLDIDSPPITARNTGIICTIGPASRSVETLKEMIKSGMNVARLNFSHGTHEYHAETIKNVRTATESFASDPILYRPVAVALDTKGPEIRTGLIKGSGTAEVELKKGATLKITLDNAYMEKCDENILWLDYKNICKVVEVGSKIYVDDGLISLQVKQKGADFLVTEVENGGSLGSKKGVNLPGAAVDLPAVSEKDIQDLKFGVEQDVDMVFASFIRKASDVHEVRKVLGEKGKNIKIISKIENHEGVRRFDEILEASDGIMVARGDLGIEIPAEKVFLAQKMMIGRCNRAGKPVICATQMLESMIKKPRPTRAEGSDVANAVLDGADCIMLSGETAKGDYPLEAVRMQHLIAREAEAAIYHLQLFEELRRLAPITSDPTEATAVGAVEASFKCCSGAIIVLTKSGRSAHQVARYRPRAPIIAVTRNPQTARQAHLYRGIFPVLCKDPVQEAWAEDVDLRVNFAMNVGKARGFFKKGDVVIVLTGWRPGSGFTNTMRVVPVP
T1 sequence (P30613 whole entry): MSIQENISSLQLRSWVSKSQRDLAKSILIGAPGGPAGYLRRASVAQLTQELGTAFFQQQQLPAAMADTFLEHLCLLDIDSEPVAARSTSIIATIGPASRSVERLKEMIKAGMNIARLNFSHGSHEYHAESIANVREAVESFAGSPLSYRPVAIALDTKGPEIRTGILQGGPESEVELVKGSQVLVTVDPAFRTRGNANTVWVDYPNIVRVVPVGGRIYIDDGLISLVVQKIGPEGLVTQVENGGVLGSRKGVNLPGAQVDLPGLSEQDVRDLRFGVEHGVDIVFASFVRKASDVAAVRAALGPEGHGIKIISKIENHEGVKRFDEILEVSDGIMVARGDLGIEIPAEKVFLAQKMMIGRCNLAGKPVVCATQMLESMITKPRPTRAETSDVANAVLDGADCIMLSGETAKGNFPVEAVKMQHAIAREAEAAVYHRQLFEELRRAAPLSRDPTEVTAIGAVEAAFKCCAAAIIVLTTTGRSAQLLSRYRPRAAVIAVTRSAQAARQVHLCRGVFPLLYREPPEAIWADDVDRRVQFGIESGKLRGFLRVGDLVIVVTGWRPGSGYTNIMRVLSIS
T2 sequence (P14618 2-531 limits assumed): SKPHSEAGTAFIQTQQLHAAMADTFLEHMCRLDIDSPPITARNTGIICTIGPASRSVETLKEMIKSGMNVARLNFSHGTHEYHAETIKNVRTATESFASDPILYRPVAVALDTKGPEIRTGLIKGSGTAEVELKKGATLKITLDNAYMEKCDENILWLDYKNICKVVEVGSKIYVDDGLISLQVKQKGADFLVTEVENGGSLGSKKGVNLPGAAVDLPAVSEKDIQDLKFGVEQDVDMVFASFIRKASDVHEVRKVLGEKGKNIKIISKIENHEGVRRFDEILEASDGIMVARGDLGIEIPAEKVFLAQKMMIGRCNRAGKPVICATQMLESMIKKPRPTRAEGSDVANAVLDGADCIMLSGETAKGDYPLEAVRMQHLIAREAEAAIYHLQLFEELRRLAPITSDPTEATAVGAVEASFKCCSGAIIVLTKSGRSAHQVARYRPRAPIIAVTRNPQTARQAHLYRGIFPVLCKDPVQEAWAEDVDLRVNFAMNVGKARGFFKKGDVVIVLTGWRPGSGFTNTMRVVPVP

Structure (SMILES)	EC50 [1]	hPKLR Emax [1, 4]	Emax [1, 4]	EC50 [2]	EC50 [3]	hPKM2 Emax [3, 4]	Emax [3, 4]
Cn1cc(S(=O)(=O)c2ccc3c(=O)n(Cc4cc5n(n4)CCO5)ncc3c2)cn1 [Example 5, 2-((2,3-dihydropyrazolo[5,1-b]oxazol-6-yl)methyl)-6-((1-methyl-1H-pyrazol-4-yl)sulfonyl)phthalazin-1(2H)-one]	23.3 nM and 27.6 nM	128* %	121%	93 nM	98.9 nM and 207 nM	104* %	110%
O=c1c2ccc(S(=O)(=O)c3cnn(CCO)c3)cc2cnn1Cc1ccc2c(n1)CCO2 [Example 3, 2-((2,3-dihydrofuro[3,2-b]pyridin-5-yl)methyl)-6-((1-(2-hydroxyethyl)-1H-pyrazol-4-yl)sulfonyl)phthalazin-1(2H)-one]	6.6 nM		118%	70 nM	50 nM		108%
O=c1c2ccc(S(=O)(=O)c3cn[nH]c3)cc2cnn1Cc1cc2n(n1)CCO2 [Example 4, 6-((1H-pyrazol-4-yl)sulfonyl)-2-((2,3-dihydropyrazolo[5,1-b]oxazol-6-yl)methyl)phthalazin-1(2H)-one]	6.4 nM		122%	125 nM	51 nM		91%

Continued by falling EC50 [2], values first:

EC50 [1]	hPKLR Emax [1, 4]	Emax [1, 4]	EC50 [2]	EC50 [3]	hPKM2 Emax [3, 4]	Emax [3, 4]	Structure (SMILES)
33.1 nM		123%	168 nM	104 nM		100%	O=c1c2ccc(S(=O)(=O)c3cnn(C(F)F)c3)cc2cnn1Cc1cc[nH]n1 [Example 2, 2-((1H-pyrazol-3-yl)methyl)-6-((1-(difluoromethyl)-1H-pyrazol-4-yl)sulfonyl)phthalazin-1(2H)-one]
16 nM		119%	97 nM	114 nM		111%	COc1ccc(Cn2ncc3cc(S(=O)(=O)c4cn[nH]c4)ccc3c2=O)nc1 [Example 1, 6-((1H-pyrazol-4-yl)sulfonyl)-2-((5-methoxypyridin-2-yl)methyl)phthalazin-1(2H)-one]
			94 nM	43 nM		94%	Cc1[nH]nc(Cn2ncc3cc(S(=O)(=O)c4cc[nH]n4)ccc3c2=O)c1Cl [Example 6, 6-((1H-pyrazol-3-yl)sulfonyl)-2-((4-chloro-5-methyl-1H-pyrazol-3-yl)methyl)phthalazin-1(2H)-one]
